Experimental data: PubChem BioAssay (NCI)
In brackets after ≈: the same amount, converted by molar mass.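 A five-concentration, 48-hour dose response in 96-well plates underlies each endpoint, interpolated linearly between surrounding concentrations. GI50 marks 50% less growth. TGI: concentration producing complete growth inhibition.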

How the values were obtained:
Assay in all cases: inhibition of tumour cell growth, NCI panel, 48 h
ACHN renal = system: ACHN renal
COLO 205 colon = system: COLO 205 colon
HOP-62 NSCLC = system: HOP-62 NSCLC
K-562 leukemia = system: K-562 leukemia
KM12 colon = system: KM12 colon
LOX IMVI melanoma = system: LOX IMVI melanoma
SF-268 CNS = system: SF-268 CNS
SK-MEL-28 melanoma = system: SK-MEL-28 melanoma
HCT-116 colon = system: HCT-116 colon
MCF7 breast = system: MCF7 breast

Compound	TGI (ACHN renal) [µM]	TGI (COLO 205 colon)	TGI (HOP-62 NSCLC)	TGI (K-562 leukemia)	TGI (KM12 colon)	TGI (LOX IMVI melanoma)	TGI (SF-268 CNS)	TGI (SK-MEL-28 melanoma)	TGI (HCT-116 colon)	TGI (MCF7 breast)	GI50 (COLO 205 colon) [µg/mL]	GI50 (HCT-116 colon) [µg/mL]	GI50 (HOP-62 NSCLC) [µg/mL]	GI50 (K-562 leukemia) [µg/mL]	GI50 (KM12 colon) [µg/mL]	GI50 (LOX IMVI melanoma) [µg/mL]	GI50 (MCF7 breast) [µg/mL]	GI50 (SF-268 CNS) [µg/mL]	GI50 (SK-MEL-28 melanoma) [µg/mL]
O=c1[nH]c(=O)n(C2CC(O)C(CO)O2)cc1C#Cc1cc(F)cc(F)c1 (stereo unspecified)	> 100	> 100 µM	> 100 µM	> 100 µM	> 100 µM	> 100 µM	> 100 µM	> 100 µM	–	–	–	–	–	–	–	–	–	–	–
CC[C@]12C=CCN3CCC4(c5cc([C@@]6(C(=O)OC)CC7CN(CCc8c6[nH]c6ccccc86)C[C@@H]6CCC[C@H]76)c(OC)cc5N(C)C4[C@](O)(C(=O)OC)C1OC(C)=O)C32 (stereo partly specified)	> 8.37	0.375 µM	1.31 µM	> 10 µM	–	> 10 µM	1.6 µM	> 10 µM	3.64 µM	> 10 µM	–	–	–	–	–	–	–	–	–
CCN(CC)C1=Nc2ccccc2-n2c(C)cnc2C1	> 100	> 100 µM	–	> 100 µM	> 100 µM	> 100 µM	> 100 µM	> 100 µM	> 100 µM	> 100 µM	–	–	–	–	–	–	–	–	–
O=C(O)CNS(=O)(=O)c1ccc(NC(=O)Nc2ccccc2)cc1	–	> 100 µM	> 100 µM	> 100 µM	> 100 µM	> 100 µM	> 100 µM	> 100 µM	> 100 µM	> 100 µM	–	–	–	–	–	–	–	–	–
C/C(=N/N)c1ccc2[nH]c3c(C)cc([N+](=O)[O-])c(C)c3c2c1	21.6	25.5 µM	20.9 µM	40.7 µM	–	19.5 µM	60.4 µM	24.5 µM	17.8 µM	–	–	–	–	–	–	–	–	–	–
O=C(c1ccccc1)c1c(CNCc2ccccc2)n(C(=O)c2ccccc2)c2ccccc12	> 100	> 100 µM	> 100 µM	> 100 µM	87.8 µM	–	> 100 µM	> 100 µM	> 100 µM	–	–	–	–	–	–	–	–	–	–
Nc1ccc(N)c2c1C(=O)c1c(N)ccc(N)c1C2=O	> 100	> 100 µM	> 100 µM	> 100 µM	> 100 µM	> 31.6 µM	> 100 µM	> 100 µM	> 100 µM	–	–	–	–	–	–	–	–	–	–
NC(N)=Nc1nc2ccccc2[nH]1	–	> 150 µg/mL	124 µg/mL	> 150 µg/mL	> 150 µg/mL	> 150 µg/mL	> 150 µg/mL	> 150 µg/mL	> 150 µg/mL	79.4 µg/mL	61.7 (≈ 352 µM)	49.3 (≈ 282 µM)	43.4 (≈ 248 µM)	27.6 (≈ 157 µM)	53.1 (≈ 303 µM)	43.8 (≈ 250 µM)	1.05 (≈ 6.01 µM)	128 (≈ 732 µM)	135 (≈ 769 µM)
CP(C)(=S)P(C)(C)=S	> 100	> 100 µM	> 100 µM	> 100 µM	–	> 100 µM	> 100 µM	> 100 µM	> 100 µM	> 100 µM	–	–	–	–	–	–	–	–	–
C[C@]12CCC(=O)C=C1CC[C@@H]1C2CC[C@]2(C)Nc3c(ncn3-c3ccc(F)cc3)CC12 (stereo partly specified)	> 100	38.4 µM	> 100 µM	69 µM	85.9 µM	–	> 100 µM	> 100 µM	32.8 µM	74 µM	–	–	–	–	–	–	–	–	–
